# Laboratory results: ChEMBL document CHEMBL4831527, “Structure-Based Design and Discovery of Pyridyl-Bearing Fused Bicyclic HIV-1 Inhibitors: Synthesis, Biological Characterization, and Molecular Modeling Studies” (J Med Chem, 2021)
# Activity calls are given as the source filed them. No cut-off for these calls is given here.
# Tests used:
# [1] = test system: Human immunodeficiency virus 1; assay: Antiviral activity against HIV1 harboring reverse transcriptase L100I mutant infected in human MT4 cells assessed as protection against virus-induced cytopathic effect incubated for 5 days by MTT assay; format: functional, organism-based; conditions: Human immunodeficiency virus 1, MT4, 120 h
# [2] = Selectivity index, ratio of CC50 for mock-infected human MT4 cells to EC50 for HIV1 3B infected in human MT4 cells; format: toxicity, cell-based; conditions: MT4 cells (mock-infected and HIV1 3B infected), read-out: Ratio CC50/EC50
# [3] = test system: Human immunodeficiency virus 1; assay: Antiviral activity against HIV1 harboring reverse transcriptase K103N mutant infected in human MT4 cells assessed as protection against virus-induced cytopathic effect incubated for 5 days by MTT assay; format: functional, organism-based; conditions: Human immunodeficiency virus 1, MT4, 120 h
# [4] = Cytotoxicity against mock-infected human MT4 cells assessed as reduction in cell viability measured after 5 days by MTT assay; format: cell-based; conditions: time 5 day
# [5] = test system: Human immunodeficiency virus 1; assay: Antiviral activity against HIV1 harboring reverse transcriptase Y181C mutant infected in human MT4 cells assessed as protection against virus-induced cytopathic effect incubated for 5 days by MTT assay; format: functional, organism-based; conditions: Human immunodeficiency virus 1, MT4, 120 h
# [6] = test system: Human immunodeficiency virus 1; assay: Antiviral activity against HIV1 RES056 infected in human MT4 cells assessed as protection against virus-induced cytopathic effect incubated for 5 days by MTT assay; format: functional, organism-based; conditions: Human immunodeficiency virus 1, RES056, MT4, 120 h
# [7] = test system: Human immunodeficiency virus 1; assay: Antiviral activity against HIV1 harboring reverse transcriptase F227L/V106A double mutant infected in human MT4 cells assessed as protection against virus-induced cytopathic effect incubated for 5 days by MTT assay; format: functional, organism-based; conditions: Human immunodeficiency virus 1, MT4, 120 h
# [8] = test system: Human immunodeficiency virus 1; assay: Antiviral activity against HIV1 harboring reverse transcriptase E138K mutant infected in human MT4 cells assessed as protection against virus-induced cytopathic effect incubated for 5 days by MTT assay; format: functional, organism-based; conditions: Human immunodeficiency virus 1, MT4, 120 h
# [9] = biological target: Human immunodeficiency virus type 1 reverse transcriptase (Human immunodeficiency virus 1, UniProt Q72547); assay: Inhibition of wild type HIV1 p66/p51 reverse transcriptase using poly(rA) as template, oligo(dT)16 as primer and RNA/DNA as substrate measured after 40 mins by PICOGreen-dye based spectrofluorimetry analysis
# [10] = test system: Human immunodeficiency virus 2; assay: Antiviral activity against HIV2 ROD infected in human MT4 cells assessed as protection against virus-induced cytopathogenicity after 5 days by MTT assay; format: functional, organism-based; conditions: time 5.0 day
# [11] = test system: Human immunodeficiency virus 1; assay: Antiviral activity against HIV1 harboring reverse transcriptase Y188L mutant infected in human MT4 cells assessed as protection against virus-induced cytopathic effect incubated for 5 days by MTT assay; format: functional, organism-based; conditions: Human immunodeficiency virus 1, MT4, 120 h
# [12] = test system: Human immunodeficiency virus 1; assay: Antiviral activity against HIV1 3B infected in human MT4 cells assessed as protection against virus-induced cytopathic effect incubated for 5 days by MTT assay; format: functional, organism-based; conditions: Human immunodeficiency virus 1, 3B, MT4, 120 h
# [13] = Selectivity index, ratio of CC50 for mock-infected human MT4 cells to EC50 for HIV1 RES056 infected in human MT4 cells; format: toxicity, cell-based; conditions: MT4 cells (mock-infected and HIV1 RES056 infected), read-out: Ratio CC50/EC50
# in vitro = conditions: human, liver microsomes
# [14] = Half life in human liver microsomes at 1 uM in presence of NADPH by LC-MS/MS analysis; format: ADME, Microsome
# [15] = test system: Human immunodeficiency virus 1; assay: Potency index, ratio of EFV EC50 to test compound EC50 for antiviral activity against HIV1 RES056 infected in human MT4 cells; format: functional
Compound,EC50 [1],selectivity ratio [2],EC50 [3],CC50 at 120 h [4],EC50 [5],EC50 [6],EC50 [7],EC50 [8],IC50 [9],Activity [10],EC50 [11],EC50 [12],selectivity ratio [13],"CLint scaled at 1 h, 1 µM (in vitro)",half-life at 1 µM [14],Ratio EC50 [15]
Cc1cc(C=O)cc(C)c1Oc1nc(Nc2ccc(C#N)cc2)nc2c1CCCC2,492 nM,169,63.7 nM,5900 nM,748 nM,1200 nM,2240 nM,146 nM,55 nM,inactive,663 nM,35.1 nM,5,,,
Cc1cc(C=O)cc(C)c1Oc1nc(Nc2ccc(C#N)nc2)nc2c1CCCC2,,590,,20900 nM,,9210 nM,,,43 nM,inactive,,35.4 nM,2,,,
Cc1cc(C=O)cc(C)c1Oc1nc(Nc2ccc(C#N)cn2)nc2c1CCCC2,,1250,,293000 nM,,> 35300 nM,,,58 nM,inactive,,234 nM,58,,,
Cc1cc(C)c(Oc2nc(Nc3ccc(C#N)cc3)nc3c2CCCC3)c(C)c1,96.9 nM,177,57 nM,6800 nM,232 nM,805 nM,524 nM,171 nM,241 nM,inactive,191 nM,38.6 nM,8,,,
Cc1cc(/C=C/C#N)cc(C)c1Oc1nc(Nc2ccc(C#N)cc2)nc2c1CCCC2,18 nM,513,17 nM,7200 nM,40.9 nM,68.2 nM,95.3 nM,61.3 nM,119 nM,inactive,77.9 nM,14 nM,105,45.5 mL/min/kg,27.4 min,2.1
O=C(O)Cc1ccccc1Nc1c(Cl)cccc1Cl [DICLOFENAC],,,,,,,,,,,,,,310 mL/min/kg,,
Cc1cc(C#N)cc(C)c1Oc1nc(Nc2ccc(C#N)nc2)nc2c1CCCC2,,228,,244000 nM,,> 12600 nM,,,50 nM,inactive,,1070 nM,< 19,,,
Cc1cc(C#N)cc(C)c1Oc1nc(Nc2ccc(C#N)nc2)nn2cccc12,204 nM,9830,11.9 nM,69100 nM,171 nM,1220 nM,> 69100 nM,> 69100 nM,14 nM,inactive,> 69100 nM,7 nM,57,,,
Cc1cc(/C=C/C#N)cc(C)c1Oc1nc(Nc2ccc(C#N)nc2)nc2c1CCCC2,12.8 nM,1160,7.7 nM,8800 nM,34.8 nM,58.8 nM,> 8830 nM,> 8830 nM,147 nM,inactive,> 8830 nM,7.6 nM,150,47 mL/min/kg,26.5 min,2.4
Cc1cc(C#N)cc(C)c1Oc1nc(Nc2ccc(C#N)cc2)nc(N)c1Br [ETRAVIRINE],7.4 nM,,3.9 nM,> 4600 nM,213 nM,473 nM,25.7 nM,15.2 nM,,,27.2 nM,4.8 nM,,,,
Cc1cc(C#N)cc(C)c1Oc1nc(Nc2ccc(C#N)cc2)nc2c1CCCC2,12.8 nM,298,7.1 nM,,52.7 nM,,58.4 nM,19 nM,52 nM,inactive,24.5 nM,10.6 nM,,,,
Cc1cc(C#N)cc(C)c1Oc1nc(Nc2ccc(C#N)cc2)nc2c1ccn2COCC[Si](C)(C)C,,4,,3000 nM,,> 2960 nM,,,171 nM,inactive,,820 nM,< 1,,,
Cc1cc(/C=C/C#N)cc(C)c1Oc1nc(Nc2ccc(C#N)cc2)nn2cccc12,7.8 nM,395,4.8 nM,5000 nM,19.7 nM,61.1 nM,> 41300 nM,> 41300 nM,43 nM,inactive,> 41300 nM,12.6 nM,81,28.8 mL/min/kg,43.3 min,2.4
Cc1cc(C#N)cc(C)c1Oc1nc(Nc2ccc(S(C)(=O)=O)cc2)nc2c1CCCC2,,> 4920,,> 279000 nM,,> 279000 nM,,,69 nM,inactive,,56.7 nM,,,,
Cc1cc(/C=C/C#N)cc(C)c1Oc1nc(Nc2ccc(CC#N)cc2)nc2c1CCCC2,49 nM,2730,12.9 nM,48300 nM,140 nM,433 nM,> 25800 nM,> 25800 nM,49 nM,inactive,> 25800 nM,17.7 nM,112,,,
Cc1cc(C#N)cc(C)c1Oc1nc(Nc2ccc(C#N)cn2)nc2c1ccn2COCC[Si](C)(C)C,,< 1,,93900 nM,,> 93900 nM,,,31000 nM,inactive,,> 93900 nM,< 1,,,
O=C1Nc2ccc(Cl)cc2[C@@](C#CC2CC2)(C(F)(F)F)O1 [EFAVIRENZ],51.6 nM,> 1390,,> 6300 nM,,144 nM,274 nM,6 nM,,,244 nM,4.5 nM,> 44,,,
Cc1cc(C#N)cc(C)c1Oc1nc(Nc2ccc(CC#N)cc2)nc2c1CCCC2,68.5 nM,385,9.9 nM,4500 nM,283 nM,1020 nM,> 4520 nM,> 4520 nM,53 nM,inactive,> 4520 nM,11.7 nM,4,,,
Cc1cc(C#N)cc(C)c1Oc1nc(Nc2ccc(OC(F)(F)F)cc2)nc2c1CCCC2,,> 3410,,> 275000 nM,,> 275000 nM,,,61000 nM,inactive,,80.6 nM,,,,
Cn1c(Cn2ccc(C(F)(F)F)c(Oc3cc(Cl)cc(C#N)c3)c2=O)n[nH]c1=O [DORAVIRINE],,> 21900,,> 294000 nM,,15 nM,,,,,,13 nM,> 20100,,,
Cc1cc(/C=C/C(N)=O)cc(C)c1Oc1nc(Nc2ccc(C#N)cc2)nn2cccc12,,1590,,57600 nM,,5850 nM,,,53 nM,inactive,,36.3 nM,10,,,
Cc1cc(C#N)cc(C)c1Oc1nc(Nc2ccc(C#N)nc2)nc2c1ccn2CO,,≥ 2950,,≥ 138000 nM,,> 138000 nM,,,47 nM,inactive,,46.9 nM,,,,
C[C@]12CC[C@H]3[C@@H](CCC4=CC(=O)CC[C@@]43C)[C@@H]1CC[C@@H]2O [TESTOSTERONE],,,,,,,,,,,,,,126 mL/min/kg,,
Cc1cc(C#N)cc(C)c1Oc1nc(Nc2ccc(C#N)cc2)nc2c1ccn2CO,20.1 nM,137,3.7 nM,830 nM,31.2 nM,128 nM,> 707 nM,> 707 nM,40 nM,inactive,> 707 nM,6.1 nM,6,,,
Cc1cc(/C=C/C#N)cc(C)c1Nc1ccnc(Nc2ccc(C#N)cc2)n1 [RILPIVIRINE],,,,,,,,,,,,,,97.6 mL/min/kg,12.8 min,
Cc1cc(C#N)cc(C)c1Oc1nc(Nc2ccc(C#N)nc2)nc2c1ccn2COCC[Si](C)(C)C,,463,,117000 nM,,> 117000 nM,,,7400 nM,inactive,,253 nM,< 1,,,
